Laboratory results from patent US8589175B2, “Optimization and individualization of medication selection and dosing” (Children's Hospital Medical Center, priority 2005, dated 2013).
Where two headings read alike, the source gives them in different places.

Key:
[1] = test system: CYP2D6
[2] = test system: CYP2C19; experiment: dosing recommendation per CYP2C19 metabolizer subgroup as percentage of usual population dose (Equations 4-6)
Description: Assuming the goal is to maintain the same AUC for all three subpopulations of patients, the following subpopulation dosing relationships hold: DPM=DEM*(AUCEM/AUCPM) OR DPM=DEM*R if R=(AUCEM/AUCPM) (Equation 2) DIM=DEM*(AUCEM/AUCIM) OR DIM=DEM*S if S=(AUCEM/AUCIM) (Equation 3)
By substituting equations 2 and 3 into equation 1, and then rearranging the equation to solve for the percent dose adjustment needed for each subgroup relative to the population dose: DEM(%)=100/(fEM+fIM*S+fPM*R) (Equation 4) DPM(%)=R*DEM (Equation 5) DIM(%)=S*DEM (Equation 6) Equations 4, 5, and 6 show how the dosing for the more homogeneous subgroups is determined and how the dosing results are expressed as a fraction of the clinician's usual heterogeneous whole group dosages. Determining “Minimal Dose Adjustment Units”
Example: The approach in the previous section leads to individualized initial drug dose recommendations for each of the 3 subgroups (extensive, poor and intermediate metabolizers). Each subgroup represents a specific number of functional alleles for the specific DME (extensive metabolizers have 2 functional, intermediate metabolizers have 1 functional and poor metabolizers have 0 functional). The resultant dosing recommendations are expressed as percentages of the clinician's usual starting dose. It is possible to investigate the effect of increasing numbers of non-functional alleles using these new dosing recommendations. For example, if DRX % is the dosing recommendation for subgroup X expressed as a percentage of the clinician's usual starting dose then the following are true: Effect of […] 1 non-functional allele=(DREM %−DRIM %)/DREM % Effect of 2 non-functional allele=(DREM %−DRPM %)/DREM % Below is a spreadsheet (Table 3) that examines this for CYP2D6, CYP2C19 and CYP2C9. […] 2C9 has 2 MDA units per non-functional allele.

[3] = CYP2D6, ratio of the two effects
[4] = CYP2D6 extensive metabolizers, percent of usual dose
[5] = CYP2D6 intermediate metabolizers, percent of usual dose
[6] = CYP2D6 poor metabolizers, percent of usual dose
[7] = CYP2D6 ultrarapid metabolizers, percent of usual dose

Compound: CN[C@H]1CC[C@@H](c2ccc(Cl)c(Cl)c2)c2ccccc21 [sertraline]
- 1 al (effect of 1 non-functional allele) ([1]; human): 0.00
- 2 al (effect of 2 non-functional alleles) ([1]; human): 0.01
- EM (%) dosing recommendation ([1]; human): 100%
- IM (%) dosing recommendation ([1]; human): 100%
- PM (%) dosing recommendation ([1]; human): 99%
- UM (%) dosing recommendation ([1]; human): 100%
- 1 al (effect of 1 non-functional allele) ([2]; human): 0.14
- 2 al (effect of 2 non-functional alleles) ([2]; human): 0.29
- 2 al/1 al ([2]; human): 2.00
- IM (%) dosing recommendation ([2]; human): 90%
- PM (%) dosing recommendation ([2]; human): 75%
- UM (%) dosing recommendation ([2]; human): 105%

Compound: COc1ccc2c(c1)N(C[C@H](C)CN(C)C)c1ccccc1S2 [levomepromazine]
- 1 al (effect of 1 non-functional allele) ([1]; human): 0.00
- 2 al (effect of 2 non-functional alleles) ([1]; human): 0.00
- EM (%) dosing recommendation ([1]; human): 100%
- IM (%) dosing recommendation ([1]; human): 100%
- PM (%) dosing recommendation ([1]; human): 100%
- UM (%) dosing recommendation ([1]; human): 100%

Compound: CNCCC(Oc1ccc(C(F)(F)F)cc1)c1ccccc1 (centres unmarked) [fluoxetine]
- 1 al (effect of 1 non-functional allele) ([1]; human): 0.12
- 2 al (effect of 2 non-functional alleles) ([1]; human): 0.27
- IM (%) dosing recommendation ([1]; human): 94%
- PM (%) dosing recommendation ([1]; human): 78%
- UM (%) dosing recommendation ([1]; human): 120%
- 1 al (effect of 1 non-functional allele) ([2]; CYP2C19): 0.20
- 2 al (effect of 2 non-functional alleles) ([2]; CYP2C19): 0.35
- IM (%) dosing recommendation ([2]; CYP2C19 intermediate metabolizers, percent of usual dose): 86%
- PM (%) dosing recommendation ([2]; CYP2C19 poor metabolizers, percent of usual dose): 70%

Compound: Fc1ccc([C@@H]2CCNC[C@H]2COc2ccc3c(c2)OCO3)cc1 [paroxetine]
- 1 al (effect of 1 non-functional allele) ([1]; CYP2D6, (DREM%-DRIM%)/DREM%): 0.21
- 2 al (effect of 2 non-functional alleles) ([1]; CYP2D6, (DREM%-DRPM%)/DREM%): 0.42
- 2 al/1 al [1, 3]: 2.00
- EM (%) dosing recommendation [1, 4]: 114%
- IM (%) dosing recommendation [1, 5]: 90%
- PM (%) dosing recommendation [1, 6]: 66%
- UM (%) dosing recommendation [1, 7]: 138%

Compound: OCCN1CCN(CC/C=C2/c3ccccc3Sc3ccc(Cl)cc32)CC1 [zuclopenthixol]
- 1 al (effect of 1 non-functional allele) ([1]; human): 0.22
- 2 al (effect of 2 non-functional alleles) ([1]; human): 0.46
- 2 al/1 al ([1]; human): 2.04
- EM (%) dosing recommendation ([1]; human): 116%
- IM (%) dosing recommendation ([1]; human): 90%
- PM (%) dosing recommendation ([1]; human): 63%
- UM (%) dosing recommendation ([1]; human): 142%

Compound: O=c1n(CCCN2CCN(c3cccc(Cl)c3)CC2)nc2ccccn12 [trazadone]
- 1 al (effect of 1 non-functional allele) ([1]; human): 0.15
- 2 al (effect of 2 non-functional alleles) ([1]; human): 0.31
- 2 al/1 al ([1]; human): 2.00
- EM (%) dosing recommendation ([1]; human): 110%
- IM (%) dosing recommendation ([1]; human): 93%
- PM (%) dosing recommendation ([1]; human): 76%
- UM (%) dosing recommendation ([1]; human): 127%

Compound: O=c1[nH]c2ccccc2n1C1CCN(CCCC(c2ccc(F)cc2)c2ccc(F)cc2)CC1 [pimozide]
- 1 al (effect of 1 non-functional allele) ([1]; human): 0.03
- 2 al (effect of 2 non-functional alleles) ([1]; human): 0.07
- EM (%) dosing recommendation ([1]; human): 102%
- IM (%) dosing recommendation ([1]; human): 99%
- PM (%) dosing recommendation ([1]; human): 95%
- UM (%) dosing recommendation ([1]; human): 105%

Compound: CN1CCN2c3ncccc3Cc3ccccc3C2C1 (centres unmarked) [mirtazapine]
- 1 al (effect of 1 non-functional allele) ([1]; human): −0.02
- 2 al (effect of 2 non-functional alleles) ([1]; human): −0.03
- EM (%) dosing recommendation ([1]; human): 99%
- IM (%) dosing recommendation ([1]; human): 101%
- PM (%) dosing recommendation ([1]; human): 102%
- UM (%) dosing recommendation ([1]; human): 97%

Compound: Cl.Cl.OCCN1CCN(CCC=C2c3ccccc3Sc3ccc(C(F)(F)F)cc32)CC1 (mixture of isomers) [flupentixol]
- 1 al (effect of 1 non-functional allele) [1]: 0.26
- 2 al (effect of 2 non-functional alleles) [1]: 0.36
- 2 al/1 al [1]: 1.40
- EM (%) dosing recommendation [1]: 116%
- IM (%) dosing recommendation [1]: 86%
- PM (%) dosing recommendation [1]: 74%
- UM (%) dosing recommendation [1]: 146%

Compound: O=C1CCc2ccc(OCCCCN3CCN(c4cccc(Cl)c4Cl)CC3)cc2N1 [aripiprazole]
- 1 al (effect of 1 non-functional allele) ([1]; CYP2D6, (DREM%-DRIM%)/DREM%): 0.19
- 2 al (effect of 2 non-functional alleles) ([1]; CYP2D6, (DREM%-DRPM%)/DREM%): 0.38
- 2 al/1 al [1, 3]: 2.05
- EM (%) dosing recommendation [1, 4]: 113%
- IM (%) dosing recommendation [1, 5]: 92%
- PM (%) dosing recommendation [1, 6]: 70%
- UM (%) dosing recommendation [1, 7]: 134%

Compound: COc1ccc(C(CN(C)C)C2(O)CCCCC2)cc1 (centres unmarked) [venlafaxine]
- 1 al (effect of 1 non-functional allele) ([1]; CYP2D6, (DREM%-DRIM%)/DREM%): 0.21
- 2 al (effect of 2 non-functional alleles) ([1]; CYP2D6, (DREM%-DRPM%)/DREM%): 0.38
- 2 al/1 al [1, 3]: 1.78
- EM (%) dosing recommendation [1, 4]: 109%
- IM (%) dosing recommendation [1, 5]: 86%
- PM (%) dosing recommendation [1, 6]: 68%
- UM (%) dosing recommendation [1, 7]: 130%

Compound: CNCCCN1c2ccccc2CCc2ccccc21 [desipramine]
- 1 al (effect of 1 non-functional allele) ([1]; human): 0.34
- 2 al (effect of 2 non-functional alleles) ([1]; human): 0.66
- 2 al/1 al ([1]; human): 1.98
- EM (%) dosing recommendation ([1]; human): 125%
- IM (%) dosing recommendation ([1]; human): 83%
- PM (%) dosing recommendation ([1]; human): 42%
- UM (%) dosing recommendation ([1]; human): 167%

Compound: OCCN1CCN(CCCN2c3ccccc3Sc3ccc(Cl)cc32)CC1 [perphenazine]
- 1 al (effect of 1 non-functional allele) ([1]; CYP2D6, (DREM%-DRIM%)/DREM%): 0.38
- 2 al (effect of 2 non-functional alleles) ([1]; CYP2D6, (DREM%-DRPM%)/DREM%): 0.76
- 2 al/1 al [1, 3]: 2.00
- EM (%) dosing recommendation [1, 4]: 129%
- IM (%) dosing recommendation [1, 5]: 80%
- PM (%) dosing recommendation [1, 6]: 31%
- UM (%) dosing recommendation [1, 7]: 178%

Compound: O=C(CCCN1CCC(O)(c2ccc(Cl)cc2)CC1)c1ccc(F)cc1 [haloperidol]
- 1 al (effect of 1 non-functional allele) ([1]; human): 0.09
- 2 al (effect of 2 non-functional alleles) ([1]; human): 0.29
- 2 al/1 al ([1]; human): 3.10
- EM (%) dosing recommendation ([1]; human): 107%
- IM (%) dosing recommendation ([1]; human): 97%
- PM (%) dosing recommendation ([1]; human): 76%
- UM (%) dosing recommendation ([1]; human): 126%

Compound: CN(C)CCCN1c2ccccc2CCc2ccc(Cl)cc21 [clomipramine]
- 1 al (effect of 1 non-functional allele) ([2]; human): 0.28
- 2 al (effect of 2 non-functional alleles) ([2]; human): 0.44
- IM (%) dosing recommendation ([2]; human): 79%
- UM (%) dosing recommendation ([2]; human): 110%

Compound: CN1CCN(CCCN2c3ccccc3Sc3ccccc32)CC1 [perazine]
- 1 al (effect of 1 non-functional allele) ([1]; human): 0.17
- 2 al (effect of 2 non-functional alleles) ([1]; human): 0.22
- 2 al/1 al ([1]; human): 1.26
- EM (%) dosing recommendation ([1]; human): 110%
- IM (%) dosing recommendation ([1]; human): 91%
- PM (%) dosing recommendation ([1]; human): 86%
- UM (%) dosing recommendation ([1]; human): 117%

Compound: Cc1nc2n(c(=O)c1CCN1CCC(c3noc4cc(F)ccc34)CC1)CCCC2 [risperidone]
- 1 al (effect of 1 non-functional allele) ([1]; human): 0.09

Compound: CCc1nn(CCCN2CCN(c3cccc(Cl)c3)CC2)c(=O)n1CCOc1ccccc1 [nefazodone]
- 1 al (effect of 1 non-functional allele) ([1]; human): 0.08
- 2 al (effect of 2 non-functional alleles) ([1]; human): 0.14
- 2 al/1 al ([1]; human): 1.88
- EM (%) dosing recommendation ([1]; human): 105%
- IM (%) dosing recommendation ([1]; human): 97%
- PM (%) dosing recommendation ([1]; human): 90%
- UM (%) dosing recommendation ([1]; human): 113%

Compound: CNCCC=C1c2ccccc2CCc2ccccc21 [nortriptyline]
- 1 al (effect of 1 non-functional allele) ([1]; human): 0.19
- 2 al (effect of 2 non-functional alleles) ([1]; human): 0.55
- 2 al/1 al ([1]; human): 2.87
- EM (%) dosing recommendation ([1]; human): 119%
- IM (%) dosing recommendation ([1]; human): 96%
- PM (%) dosing recommendation ([1]; human): 53%
- UM (%) dosing recommendation ([1]; human): 152%
